Experiment [1] concerns HT-1080 cells producing GA-GCB. Nature of the experiment: Isoelectric focusing (IEF) analysis of GA-GCB glycoforms from cells treated with kifunensine or swainsonine. The class given is cell-based, human. The following applies: for apparent isoelectric point (pI) of GA-GCB: 0.1 to 2 μg/mL drug, samples from the third day. How it is done: HT-1080 cells producing GA-GCB were plated in duplicate 6-well plates and the Production Medium adjusted to the following concentrations of kifunensine or swainsonine: 0 (no drug), 0.1, 0.25, 0.5, 1, and 2 μg/mL. The medium was harvested and the cells refed every 24 hours for three days. The samples from the third day were subjected to isoelectric focusing (IEF) analysis. The effect of kifunensine and swainsonine on the molecular charge of GA-GCB is shown by the IEF analysis.

The next experiment concerns mouse J774E cells. The experiment in a line: Internalization (uptake) of glucocerebrosidase into J774E macrophage cells, with or without mannan. The following applies: producing cells treated with 1 μg/mL of drug. The class given is cell-based. How it is done: GA-GCB produced in HT-1080 cells was used in an in vitro assay to determine uptake efficiency in a mouse macrophage cell line. The specific objective of the experiment was to determine the absolute and mannose receptor-specific uptake of GA-GCB in mouse J774E cells. One day prior to assay, J774E cells were plated at 50,000 cells/cm^2 in 12 well plates in Growth Medium. For the assay, 0.5 mL of Production Medium (DMEM/F12), 0% calf serum) containing 50 nM vitamin D3 (1,2-5, Dihydroxy vitamin D3) was added to the cells. Unpurified GA-GCB (from harvest 4, Table 1) was added to the test wells at a final concentration of 10 μg/mL in the presence or absence of 2 μg/mL mannan (a competitor for the mannose receptor). Three different forms of GA-GCB were used: GA-GCB from cells treated with kifunensine (1 μg/mL), GA-GCB from cells treated with swainsonine (1 μg/mL), and GA-GCB (1 μg/mL) from untreated cells. Control wells received no GA-GCB. The wells were incubated for 4 hours at 37° C., then washed extensively in buffered saline, scraped into GA-GCB enzyme reaction buffer, passed through 2 freeze/thaw cycles, and clarified by centrifugation. The supernantant was then quantitatively tested for enzyme activity and total protein. Internalization of GA-GCB into mouse J744E cells is shown in Table 2 and is reported as Units/mg of cell lysate. […]

The test system of experiment [2] is HT-1080 cells producing GA-GCB. The experiment in a line: Roller bottle production of glucocerebrosidase (GA-GCB) in cells treated with mannosidase inhibitors. It counts as cell-based, human. Conditions: for Glucocerebrosidase Activity, Harvest 1: medium harvested about every 24 hours, specific activity 2,500 Units/mg. How it is done:
Ten roller bottles (surface area, 1700 cm^2 each) were seeded in Growth Medium (DMEM with 10% calf serum) with HT-1080 cells producing GA-GCB. Following two weeks of growth, the medium was aspirated and 200 mL of fresh Production Medium (DMEM/F12, 0% calf serum) was added to three sets of roller bottles. Two sets of 4 roller bottles were treated with 1 μg/mL of either kifunensine or swainsonine. The third group of two roller bottles received no drug treatment. After approximately 24 hours, the medium from each roller bottle was harvested, pooled and a sample taken for GA-GCB enzymatic activity analysis. This procedure was repeated for seven days. […] Absolute levels of the enzyme, however, varied according to drug treatment group with the following average GA-GCB production levels observed across the seven harvests: 38.3±3.5 mg/L (control, no drug treatment), 24.5±4.0 mg/L (swainsonine, 1 μg/mL), and 21.3±2,8 mg/L (kifunensine, 1 μg/mL).

[3] abbreviates: inhibitor 1 μg/ml, across seven harvests.

SMILES strings stand for the structures.

Turning to `O=C1N[C@@H]2[C@@H](O)[C@@H](O)[C@H](O)[C@@H](CO)N2C1=O` [Kifunensine, kifunensine], the “apparent isoelectric point (pI) of GA-GCB” value in experiment [1] is listed as “concentration dependent increase”. In addition, the “shift in pI of GA-GCB, compared between the drugs” value in experiment [1] (highest concentration tested (2 μg/mL)) is given as “much larger shift in pI than swainsonine”. In addition, the “greater uptake of GA-GCB with kifunensine than with swainsonine” value in the experiment on mouse J774E cells is given as “approximately 2 fold”. In addition, the “reduction of GA-GCB production relative to control” value in experiment [2] (inhibitor 1 μg/mL, average of seven harvests) was 44%. The “Glucocerebrosidase Activity, Average ± Standard Deviation” value in experiment [2] (setting [3]) turned out to be 21.3 ± 2.8 mg/L. Besides, in experiment [2] (inhibitor 1 μg/ml), the “Glucocerebrosidase Activity, Harvest 2” value is 22.9 mg/L; the “Glucocerebrosidase Activity, Harvest 3” value came to 17.7 mg/L; the “Glucocerebrosidase Activity, Harvest 4” value was 21.2 mg/L; the “Glucocerebrosidase Activity, Harvest 5” value was 18.4 mg/L. Moreover, in experiment [2] (inhibitor 1 μg/ml), the “Glucocerebrosidase Activity, Harvest 6” value turned out to be 21.0 mg/L; the “Glucocerebrosidase Activity, Harvest 7” value is 22.0 mg/L; the “Glucocerebrosidase Activity, Harvest 1” value amounted to 26.0 mg/L.

As for `O[C@H]1[C@H]2[C@H](O)CCCN2C[C@H]1O` [Swainsonine, swainsonine], the “apparent isoelectric point (pI) of GA-GCB” value in experiment [1] is given as “concentration dependent increase”. The “average GA-GCB production level across the seven harvests” value in experiment [2] (inhibitor 1 μg/mL) came to 24.5 ± 4.0 mg/L. Further, the “GA-GCB production level, average ± SD” value in experiment [2] (setting [3]) was 24.5 ± 4.0 mg/L. For the same molecule, in experiment [2] (inhibitor 1 μg/ml), the “Glucocerebrosidase Activity, Harvest 2” value was 17.4 mg/L; the “Glucocerebrosidase Activity, Harvest 3” value is 28.5 mg/L; the “Glucocerebrosidase Activity, Harvest 4” value came out at 27.0 mg/L; the “Glucocerebrosidase Activity, Harvest 5” value was determined as 22.9 mg/L. Moreover, in experiment [2] (inhibitor 1 μg/ml), the “Glucocerebrosidase Activity, Harvest 6” value was 25.0 mg/L; the “Glucocerebrosidase Activity, Harvest 7” value was 22.3 mg/L; the “Glucocerebrosidase Activity, Harvest 1” value is 28.6 mg/L.

These data come from patent US7138262B1, “High mannose proteins and methods of making high mannose proteins” (Shire Human Genetic Therapies, Inc., priority 2000, dated 2006).
